From PMC12071533, “Acridine-Based Chalcone 1C and ABC Transporters” (International Journal of Molecular Sciences, 2025)

Target: T1, ABCB1 (multidrug resistance protein 1, P-glycoprotein) (Homo sapiens, UniProt P08183)
T1 construct: recombinant human ABCB1 in MDR1-Sf9 membranes
Test: vanadate-sensitive ATPase assay (Pi release) in MDR1-Sf9 membranes; inhibition of verapamil-stimulated activity, biphasic in the activation test
Assay type: biochemical
Conditions: read-out: EC50 (the source's name)

Structure (SMILES): COc1cccc(OC)c1C(=O)/C=C/c1c2ccccc2nc2ccccc12 [1C, (2E)-3-(acridin-9-yl)-1-(2,6-dimethoxyphenyl)prop-2-en-1-one]
- IC50: 5.53 ± 0.97 µM
